Laboratory results: article PMC11170914, “A distinct dimer configuration of a diatom Get3 forming a tetrameric complex with its tail-anchored membrane cargo” (BMC Biology, 2024)

Biological target: T1, Pt-Get3a (Phaeodactylum tricornutum, UniProt B7G933)
T1 construct: gene PHATRDRAFT_22896; full length, residues 1-349; expressed in E. coli; N-terminal 6His tag cleaved by TEV protease
T1 sequence (B7G933 1-349): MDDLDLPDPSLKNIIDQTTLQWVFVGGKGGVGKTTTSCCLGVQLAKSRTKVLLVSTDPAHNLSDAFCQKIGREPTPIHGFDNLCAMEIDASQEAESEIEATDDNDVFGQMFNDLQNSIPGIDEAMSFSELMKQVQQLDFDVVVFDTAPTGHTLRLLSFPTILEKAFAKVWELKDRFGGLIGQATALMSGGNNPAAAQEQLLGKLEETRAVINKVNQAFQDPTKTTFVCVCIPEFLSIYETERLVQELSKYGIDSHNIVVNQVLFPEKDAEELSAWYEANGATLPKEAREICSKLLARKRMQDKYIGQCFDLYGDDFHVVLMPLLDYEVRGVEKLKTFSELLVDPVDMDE
Experiment: X-ray crystallography, […] Å
Conditions: co-crystal with 2 mM ADP, 2 mM MgCl2, 2 mM AlCl3, 8 mM NaF, pH 4.7, 25 °C; Mg2+/ADP in nucleotide-binding domain

In the case of Nc1ncnc2c1ncn2[C@@H]1O[C@H](COP(=O)(O)OP(=O)(O)O)[C@@H](O)[C@H]1O [ADP], the “X-ray crystallography, 2.32 Å” value is reported as “an ADP and a magnesium ion were observed in the two crystallographic independent monomers”.
